Assay results reported in the METLIN SMRT retention time set (Domingo-Almenara et al. 2019).

Assay: gradient 5% acetonitrile 3 min, to 50% in 2 min, to 85% in 15 min, held 3 min, 100 µL/min
Settings: column: Zorbax Extend-C18 2.1 x 50 mm; eluents: water / acetonitrile, 0.1% formic acid
Outline: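 Data were gathered over 3 months by HPLC coupled to a quadrupole time-of-flight mass spectrometer, operated in positive and negative ionization mode. Mixtures of ~100 pure standards ran on a Zorbax Extend-C18 column (2.1 × 50 mm, 1.8 μm) at 100 μL/min, with water and acetonitrile each containing 0.1% formic acid and dead and dwell volumes of 40 μL and 900 μL. Retention time was read from adduct peaks picked by computer and checked manually.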
In the case of Cc1ccc2[nH]cc(CCNC(=O)CN3C(=O)CSc4cccn4-c4ccccc43)c2c1, the RP-LC retention time is reported as 954 s.
O=C(CCc1nnn2c1CN(C(=O)C1CCCC1)CC2)N1CCOCC1 gave an RP-LC retention time of 616 s.
COc1cccc(NC(=O)N2CCc3cn(C)c4cccc(c34)C2)c1 showed an RP-LC retention time of 771 s.
In the case of Cc1cc(C(=O)N2CCC(Oc3nc4c(Cl)cccc4s3)CC2)no1, the RP-LC retention time is reported as 956 s.
With Cc1cc2c(cc1S(=O)(=O)N1CCCC1C(=O)N1CCc3ccccc3C1)OCC(=O)N2 (stereo not given) the RP-LC retention time was 748 s.
In the case of CCOc1ccc(NC(=O)N2CCCC(C)(C(=O)NCc3ccccc3)C2)cc1 (stereo not given), the RP-LC retention time is reported as 859 s.
COc1cccc(-c2cc(=O)n3c4ccccc4n(CC(=O)NC(C)C)c3n2)c1 showed an RP-LC retention time of 858 s.
For Cn1c(=O)oc2cc(-c3noc(-c4ccc(C(C)(C)C)cc4)n3)ccc21, the RP-LC retention time was 1310 s.
For O=S(=O)(c1cccs1)N1CCc2nc(-c3ccc(Cl)cc3)ncc2C1, the RP-LC retention time was 1150 s.
In the case of Cc1c(C(=O)N2CCOCC2)cc(-c2ccccc2)n1C, the RP-LC retention time is reported as 616 s.
With NC(=O)c1cc(N2CCOCC2)nc2ccc(F)cc12 the RP-LC retention time was 688 s.
With Cc1ccc2c(C(=O)N3CCN(C4CCCCC4)CC3)cc(NC(=O)C3CCC3)cc2n1 the RP-LC retention time was 556 s.
In the case of CCc1ccc(S(=O)(=O)N2CCC(c3noc(-c4cccc(OC)c4)n3)CC2)cc1, the RP-LC retention time is reported as 1240 s.
Work on O=C(CCc1cn(-c2ccccc2)nc1-c1ccc2c(c1)OCO2)NCCc1ccco1 yielded an RP-LC retention time of 1100 s.
Compound CCCC(=O)Nc1ccc(-c2nc(-c3ccccc3)co2)cc1 has an RP-LC retention time of 1010 s.
For CCc1nn(C)c(=O)c2cc(S(=O)(=O)NCc3ccccc3)cn12, the RP-LC retention time was 831 s.
In the case of CCCS(=O)(=O)c1nc2ccc(NS(=O)(=O)c3cc(C)ccc3C)cc2s1, the RP-LC retention time is reported as 958 s.
O=C(Nc1ccc(-n2cnc(C(=O)N3CCCCCC3)c2)nc1)C1CC1 showed an RP-LC retention time of 698 s.
In the case of COCCc1noc(C2CN(S(=O)(=O)Cc3ccccc3F)C2)n1, the RP-LC retention time is reported as 858 s.
With COC(=O)Nc1ccc(CC(=O)NC2CC2)cc1 the RP-LC retention time was 592 s.
In the case of CCOC(=O)C(NC(=O)C1CCCN1C(=O)OCc1ccccc1)C(=O)OCC (stereo not given), the RP-LC retention time is reported as 855 s.
Work on CCn1ccc(-c2nc(-c3cccc(-c4csc(C5CC5)n4)c3)no2)n1 yielded an RP-LC retention time of 1220 s.
Work on O=C(Cc1ccc(F)cc1)N1CCC2(CC1)N=C(c1ccc(Cl)cc1)NO2 yielded an RP-LC retention time of 889 s.
Compound O=C(CN1C(=O)c2ccccc2C1=O)NCCS(=O)(=O)N1CCc2ccccc2C1 has an RP-LC retention time of 744 s.
In the case of CCOc1ccccc1NC(=O)NCCc1nc2cccnc2n1C1CCCC1, the RP-LC retention time is reported as 782 s.
Work on CCn1c(=O)c(N2CCC(NC(=O)NCCc3ccccc3)CC2)nc2ccccc21 yielded an RP-LC retention time of 882 s.
COc1ccc(OC)c(NC(=O)N2CCc3cn(CC(C)C)c4cccc(c34)C2)c1 gave an RP-LC retention time of 1160 s.
With CC1CCCCN1CCNC(=O)c1cc(=O)n2c(nc3ccccc32)s1 (stereo not given) the RP-LC retention time was 626 s.
In the case of CCn1cnc2ccc(-c3noc(-c4ccc(OC)cc4C)n3)cc21, the RP-LC retention time is reported as 741 s.
Work on O=C(NC1CCCCCC1)c1csc(-c2ccc(N3CCCC3)nc2)n1 yielded an RP-LC retention time of 774 s.
CC(C)n1cnnc1C1CCN(C(=O)Cc2c[nH]c3ccccc23)CC1 gave an RP-LC retention time of 626 s.
Work on CCc1cccc(NC(=O)CSc2cc(N3CCN(c4ccc(OC)cc4)CC3)ncn2)c1 yielded an RP-LC retention time of 1040 s.
In the case of O=C(c1csc(Nc2ccccc2)n1)N1CCN(c2ccccc2F)CC1, the RP-LC retention time is reported as 911 s.
With Cc1nnc2ccc(-c3noc(Cc4ccccc4Cl)n3)cn12 the RP-LC retention time was 852 s.
In the case of O=C(Nc1c(C(=O)N2CCN(c3ccccn3)CC2)[nH]c2ccccc12)c1ccc(Cl)cc1, the RP-LC retention time is reported as 678 s.
Work on Cc1noc(C)c1CCC(=O)N1CCCCC1c1nncn1CC1CC1 (stereo not given) yielded an RP-LC retention time of 655 s.
Cc1nn(CC(=O)NC(C)(C)C)c(=O)c2c(C)n(-c3ccccc3)nc12 gave an RP-LC retention time of 768 s.
COc1ccc(S(=O)(=O)Nc2ccc3nc(-c4ccc(F)cc4)cc(OC)c3c2)cc1 showed an RP-LC retention time of 774 s.
Work on CS(=O)(=O)c1cccc(CNc2nc(Nc3ccc4c(c3)CCC(=O)N4)ncc2C(F)(F)F)c1 yielded an RP-LC retention time of 737 s.
CCc1ccc(Nc2c(C(=O)N3CCCCC3C)cnc3nc(C)ccc23)cc1 (stereo not given) showed an RP-LC retention time of 674 s.
Work on COC(=O)c1cn(Cc2cc(C)ccc2C)nc1S(=O)(=O)N(C)c1ccc(C)cc1 yielded an RP-LC retention time of 1060 s.
Work on Cn1ncc2c3ccccc3n(CC(=O)NCCN3CCOCC3)c2c1=O yielded an RP-LC retention time of 592 s.
In the case of CCC(=O)N1c2ccccc2NC2=C(C(=O)CC(C)(C)C2)C1c1ccc(C(=O)OC)cc1 (stereo not given), the RP-LC retention time is reported as 749 s.
CCOc1ccc(S(=O)(=O)N2CCC(C(=O)NCc3ccccn3)CC2)cc1C showed an RP-LC retention time of 680 s.
Cc1ccc(NS(=O)(=O)c2cc3c4c(c2)CCC(=O)N4CCC3)c(C)c1 gave an RP-LC retention time of 840 s.
In the case of COc1ccc(Nc2nc(-c3nnn(-c4cc(Cl)c(OC)cc4OC)c3C)ns2)cc1, the RP-LC retention time is reported as 1020 s.
NC(=O)c1c(NC(=O)C2=COCCO2)sc2c1CCCCC2 gave an RP-LC retention time of 987 s.
Work on CCN1C(=O)C2CC3(CCN(C(=O)c4ccoc4)CC3)CN2C1=O (stereo not given) yielded an RP-LC retention time of 628 s.
CCN(CC)C(=O)c1ccc2c(c1)N(CC(=O)NCc1ccco1)C(=O)C1CCCCN21 (stereo not given) gave an RP-LC retention time of 783 s.
Compound CCn1cc(-c2ccc(C)cc2)cc1C(=O)NCCCN1CCCC1=O has an RP-LC retention time of 856 s.
CC(C)NC(=O)c1ccc(OCC2CCCN2C(=O)C(C)C)cc1 (stereo not given) showed an RP-LC retention time of 757 s.
For O=C(NCC1(N2CCOCC2)CCOC1)Nc1ccccc1 (stereo not given), the RP-LC retention time was 572 s.
CC(C)Cn1c(CCNC(=O)c2ccccc2F)nc2cccnc21 showed an RP-LC retention time of 698 s.
Work on O=C(Nc1ccccc1)c1n[nH]c2c1CCCCCC2 yielded an RP-LC retention time of 957 s.
With COc1cc(C(CC(=O)N2CCCCCC2)N2Cc3ccccc3C2=O)cc(OC)c1OC (stereo not given) the RP-LC retention time was 797 s.
CSc1cccc(NC(=O)c2nnn(-c3ccccc3)c2C)c1 showed an RP-LC retention time of 1060 s.
COc1cccc(Cn2ccn3nc(-c4ccc5c(c4)OCO5)cc3c2=O)c1 showed an RP-LC retention time of 970 s.
Cc1cc(OCC(=O)N2CCCC(C)C2)nc(-c2ccc(Cl)cc2)n1 (stereo not given) showed an RP-LC retention time of 1140 s.
CCc1cccc(C)c1NC(=O)Cn1nc2n(c1=O)CCCCC2 gave an RP-LC retention time of 700 s.
Cc1c(C(=O)NC2CCCC2)cnn1-c1cc(-c2nc(C3CC3)no2)ccn1 showed an RP-LC retention time of 887 s.
Work on Cc1ccc(-c2cc3c(=O)n(Cc4nc(-c5ccc6c(c5)OCO6)no4)ncn3n2)c(C)c1 yielded an RP-LC retention time of 1170 s.
Cc1cc(-c2csc(Nc3ccc(N(C)C)cc3)n2)ccc1F showed an RP-LC retention time of 767 s.
Compound CCc1ccc(NS(=O)(=O)c2cc(-c3[nH]ncc3C(=O)N(C)C)oc2C)cc1 has an RP-LC retention time of 704 s.
For COCCCNS(=O)(=O)c1cc(-c2nc(C)cs2)n(CC(=O)N2CCCCC2)c1, the RP-LC retention time was 824 s.
With CCOC(=O)c1nc(NC2CCCCCC2)c2ccccc2n1 the RP-LC retention time was 827 s.
Compound COc1cccc(CN2CCC(N3C(=O)C4(CCCCC4)C3c3ccncc3)CC2)c1OC (stereo not given) has an RP-LC retention time of 601 s.
CCCN1C(=O)c2cc(C(=O)NCc3ccccc3F)nn2CC1(C)C(=O)NC1CCCC1 (stereo not given) showed an RP-LC retention time of 836 s.
With COc1cccc(N2CCN(c3ccnc(SCC(=O)Nc4cc(OC)ccc4OC)n3)CC2)c1 the RP-LC retention time was 818 s.
Compound Cc1cc(N2CCN(C(=O)c3ccco3)CC2)nc(N2CCOCC2)n1 has an RP-LC retention time of 566 s.
Cc1ncsc1C1N(C2CCN(C(=O)c3ccco3)CC2)C(=O)C12CCCC2 (stereo not given) showed an RP-LC retention time of 666 s.
In the case of CCCc1nc(-c2cc3ccccc3nc2N2CCN(C)CC2)no1, the RP-LC retention time is reported as 671 s.
In the case of Cc1cc(C(=O)Nc2nc3c(s2)CN(C(=O)c2cnn(-c4ccccc4)c2C)CC3)no1, the RP-LC retention time is reported as 712 s.
Compound CN(Cc1ccccc1)C(=O)C1CCCN(c2ncnc3c2nc2n3CCCCC2)C1 (stereo not given) has an RP-LC retention time of 758 s.
With CN(C)c1cncnc1-n1cc(NC(=O)CCc2ccccc2)cn1 the RP-LC retention time was 624 s.
COC(c1ccccc1)(c1ccccc1)[C@H](Oc1nc(C)cc(C)n1)C(=O)O gave an RP-LC retention time of 913 s.
O=C1CCC(C(=O)N2C[C@@H](COCC3CC3)[C@H](c3ccccn3)C2)=NN1 showed an RP-LC retention time of 583 s.
Work on Cc1cc2c(c(=O)n(-c3ccc(F)cc3)c(=O)n2CC(=O)Nc2ccc(F)c(Cl)c2)n1C yielded an RP-LC retention time of 854 s.
For CCc1nc2cc(-c3noc(-c4ccncc4)n3)ccc2o1, the RP-LC retention time was 959 s.
COc1ccc(Cl)cc1NC(=O)Cn1c(C)nc2c(sc3nc(-c4ccccc4)ccc32)c1=O gave an RP-LC retention time of 1180 s.
Work on CS(=O)(=O)N1CCC(C(=O)Nc2ccc3cn[nH]c3c2)CC1 yielded an RP-LC retention time of 588 s.
Compound CCN(CCN(C)C)C(=O)c1cc2c(s1)N(CC)CCCC2 has an RP-LC retention time of 599 s.
Work on COc1ccc(-c2c(C)noc2NC(C)=O)cc1S(=O)(=O)N1CCCCCC1 yielded an RP-LC retention time of 788 s.
For CC1Cc2ccccc2N1S(=O)(=O)c1cc2c3c(c1)CCC(=O)N3CCC2 (stereo not given), the RP-LC retention time was 961 s.
COc1ccccc1CNC(=O)C1(c2ccc(NC(C)=O)cc2)CCC1 gave an RP-LC retention time of 736 s.
O=C(Nc1ccc(F)c(Cl)c1)c1nc2ncccn2n1 gave an RP-LC retention time of 729 s.
Cc1nsc2ncc(C(=O)N3CCOCC3)c(N3CCC(C(=O)Nc4ccccc4F)CC3)c12 gave an RP-LC retention time of 758 s.
With COc1cccc(CNC(=O)C(=O)NCC2CCN(C(=O)NC(C)(C)C)CC2)c1 the RP-LC retention time was 719 s.
Cc1onc(-c2ccccc2Cl)c1C(=O)NCCN(C)C showed an RP-LC retention time of 591 s.
Compound CCn1nccc1-c1cccc(-c2noc(-c3cccc(NC(C)=O)c3)n2)c1 has an RP-LC retention time of 924 s.
COc1ccc(-c2nnc(-c3cc(S(=O)(=O)NCc4cccnc4)ccc3Cl)o2)cc1 gave an RP-LC retention time of 696 s.
